Measured values as given in BindingDB's records for patent US20230312583 (Shengke Pharmaceuticals (Jiangsu), 2023).

Target: Mast/stem cell growth factor receptor Kit (Homo sapiens, UniProt P10721)
Assay: Biological Assay
Protocol: Reactions were carried out in the presence of 10 μM ATP. […] The radioactive phosphorylated substrate remaining on the filter paper was measured.

Sequence of Mast/stem cell growth factor receptor Kit (P10721 whole entry): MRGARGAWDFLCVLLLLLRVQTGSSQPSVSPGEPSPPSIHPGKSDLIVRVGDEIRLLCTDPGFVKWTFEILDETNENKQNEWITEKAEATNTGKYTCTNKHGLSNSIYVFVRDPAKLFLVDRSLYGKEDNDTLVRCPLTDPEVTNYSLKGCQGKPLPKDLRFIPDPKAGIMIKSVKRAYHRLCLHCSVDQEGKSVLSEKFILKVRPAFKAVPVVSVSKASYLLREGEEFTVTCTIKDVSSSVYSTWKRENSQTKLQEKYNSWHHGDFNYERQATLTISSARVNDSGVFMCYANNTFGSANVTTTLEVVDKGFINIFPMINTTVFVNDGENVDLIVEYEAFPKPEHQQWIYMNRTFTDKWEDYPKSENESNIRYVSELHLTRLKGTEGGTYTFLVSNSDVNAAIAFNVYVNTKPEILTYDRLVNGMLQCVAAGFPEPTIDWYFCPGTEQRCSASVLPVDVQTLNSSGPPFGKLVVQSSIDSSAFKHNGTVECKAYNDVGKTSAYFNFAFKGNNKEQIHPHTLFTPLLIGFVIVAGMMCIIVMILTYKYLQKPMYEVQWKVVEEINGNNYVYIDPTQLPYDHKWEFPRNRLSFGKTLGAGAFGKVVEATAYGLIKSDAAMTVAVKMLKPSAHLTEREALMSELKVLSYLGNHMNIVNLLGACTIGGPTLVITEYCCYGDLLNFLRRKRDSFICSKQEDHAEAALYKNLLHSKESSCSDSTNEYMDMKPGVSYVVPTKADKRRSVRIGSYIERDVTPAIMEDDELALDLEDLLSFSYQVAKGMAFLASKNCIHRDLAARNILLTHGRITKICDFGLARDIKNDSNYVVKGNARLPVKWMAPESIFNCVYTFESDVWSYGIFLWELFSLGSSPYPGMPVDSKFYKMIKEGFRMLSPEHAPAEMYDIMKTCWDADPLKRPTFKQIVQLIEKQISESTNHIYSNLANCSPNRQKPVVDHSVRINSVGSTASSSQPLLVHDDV

- IC50: 93.2 nM
SMILES: CC#CCOc1cc(Nc2ncc3ccc4ncn(C(C)C)c4c3n2)ncc1N1CCNCC1 [US20230312583, Compound I-13]
